In patent publication US20250154138A1, “Small Molecule IL-17A Modulators” (BeiGene, Ltd., priority 2022, published 2025):
pIC50: −log10 of the molar value.

Experiments:
[1] = target: human IL-17A / human IL-17RA (Homo sapiens (Human), UniProt Q16552); test: Human IL-17A biochemical assay (HTRF, blocking of IL-17A binding to IL-17RA); conditions: 0.4 nM IL-17A, 0.3 nM IL-17RA, max compound concentration 10 uM
Method in brief: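 HTRF competition: 0.4 nM recombinant human IL-17A pre-incubated 3 h at room temperature with compound (top 10 uM, 2.7-fold, 10 points) in HEPES pH 7.5 buffer, then 0.3 nM IL-17RA added for 1 h, then anti-6His-Tb/anti-human IgG-XL665 detection for 1 h.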

[2] = system: IL-17-induced GROα secretion from HT-29 cells; test: GROα release assay in human colorectal adenocarcinoma epithelial cell (HT-29, ELISA); format: cell-based; conditions: Homo sapiens, HT-29, 48 h, 10 ng/mL IL-17A, highest concentration 10 μM, read-out: Cellular assay HT29 cell/CXCL1 IC50
Method in brief: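 HT-29 cells were exposed 48 h at 37°C to IL-17A (final 10 ng/mL) preincubated 15 min with compound (4-fold dilutions, top 10 μM). Secreted GROα was quantified by ELISA against a standard curve, and IC50 obtained by four-parameter fitting.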

Chain of human IL-17A / human IL-17RA (Q16552 24-155): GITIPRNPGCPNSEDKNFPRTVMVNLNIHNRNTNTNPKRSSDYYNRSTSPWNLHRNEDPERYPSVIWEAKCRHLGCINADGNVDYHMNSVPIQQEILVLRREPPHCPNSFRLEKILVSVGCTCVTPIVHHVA

Row | Structure (SMILES) | pIC50 [1] | pIC50 [2]
1 | CNC(=O)C1(N2C[C@@H](C(C)C)NC2=O)Cc2ccc(NC(=O)[C@@H](NC(=O)c3ccccc3)C3CCCCC3)cc2C1 (stereo partly drawn) [Example 54, 5-((S)-2-benzamido-2-cyclohexylacetamido)-2-((R)-4-isopropyl-2-oxoimidazolidin-1-yl)-N-methyl-2,3-dihydro-1H-indene-2-carboxamide] | 7.62 | 6.86
2 | CNC(=O)C1(N2C[C@@H](C(C)C)NS2(=O)=O)Cc2ccc(NC(=O)[C@@H](NC(=O)c3ccnn3C)C3CCCCC3)cc2C1 (stereo partly drawn) [Example 55, N-((1S)-1-cyclohexyl-2-((2-((R)-4-isopropyl-1,1-dioxido-1,2,5-thiadiazolidin-2-yl)-2-(methylcarbamoyl)-2,3-dihydro-1H-inden-5-yl)amino)-2-oxoethyl)-1-methyl-1H-pyrazole-5-carboxamide] | 5.98 | 5.74
3 | CNC(=O)C1(N2C[C@@H](Cc3ccc(OC)cc3)NC2=O)Cc2ccc(NC(=O)[C@@H](NC(=O)c3ccnn3C)C3CCCCC3)cc2C1 (stereo partly drawn) [Example 56, N-((1S)-1-cyclohexyl-2-((2-((R)-4-(4-methoxybenzyl)-2-oxoimidazolidin-1-yl)-2-(methylcarbamoyl)-2,3-dihydro-1H-inden-5-yl)amino)-2-oxoethyl)-1-methyl-1H-pyrazole-5-carboxamide] | 7.70 | 7.63
4 | CNC(=O)C1(N2C[C@@H](Cc3cccs3)NC2=O)Cc2ccc(NC(=O)[C@@H](NC(=O)c3ccnn3C)C3CCCCC3)cc2C1 (stereo partly drawn) [Example 57, N-((1S)-1-cyclohexyl-2-((2-(methylcarbamoyl)-2-((R)-2-oxo-4-(thiophen-2-ylmethyl)imidazolidin-1-yl)-2,3-dihydro-1H-inden-5-yl)amino)-2-oxoethyl)-1-methyl-1H-pyrazole-5-carboxamide] | 6.48 | 5.67
5 | CNC(=O)C1(N2C[C@@H](C(C)C)NC2=O)Cc2ccc(NC(=O)[C@@H](NC(=O)c3cccnc3)C3CCCCC3)cc2C1 (stereo partly drawn) [Example 58, N-((1S)-1-cyclohexyl-2-((2-((R)-4-isopropyl-2-oxoimidazolidin-1-yl)-2-(methylcarbamoyl)-2,3-dihydro-1H-inden-5-yl)amino)-2-oxoethyl)nicotinamide] | 6.23 | 5.84
6 | CNC(=O)C1(N2C[C@@H](C(C)C)NC2=O)Cc2ccc(NC(=O)[C@@H](NC(=O)c3ccnn3C(C)C)C3CCCCC3)cc2C1 (stereo partly drawn) [Example 59, N-((1S)-1-cyclohexyl-2-((2-((R)-4-isopropyl-2-oxoimidazolidin-1-yl)-2-(methylcarbamoyl)-2,3-dihydro-1H-inden-5-yl)amino)-2-oxoethyl)-1-isopropyl-1H-pyrazole-5-carboxamide] | 7.03 | 7.46
7 | CNC(=O)C1(N2C[C@@H](C(C)C)NC2=O)Cc2ccc(NC(=O)[C@@H](NC(=O)c3cnn(C)c3)C3CCCCC3)cc2C1 (stereo partly drawn) [Example 61, N-((1S)-1-cyclohexyl-2-((2-((R)-4-isopropyl-2-oxoimidazolidin-1-yl)-2-(methylcarbamoyl)-2,3-dihydro-1H-inden-5-yl)amino)-2-oxoethyl)-1-methyl-1H-pyrazole-4-carboxamide] | 6.07 | 5.30
8 | CNC(=O)C1(N2C[C@@H](Cc3ccc(C)cc3)NC2=O)Cc2ccc(NC(=O)[C@@H](NC(=O)c3ccnn3C)C3CCCCC3)cc2C1 (stereo partly drawn) [Example 62, N-((1S)-1-cyclohexyl-2-((2-((R)-4-(4-methylbenzyl)-2-oxoimidazolidin-1-yl)-2-(methylcarbamoyl)-2,3-dihydro-1H-inden-5-yl)amino)-2-oxoethyl)-1-methyl-1H-pyrazole-5-carboxamide] | 7.62 | 6.67
9 | C#CCC1CN(C2(C(=O)NC)Cc3ccc(NC(=O)[C@@H](NC(=O)c4ccnn4C)C4CCCCC4)cc3C2)C(=O)N1 (stereo partly drawn) [Example 63, N-((1S)-1-cyclohexyl-2-((2-(methylcarbamoyl)-2-(2-oxo-4-(prop-2-yn-1-yl)imidazolidin-1-yl)-2,3-dihydro-1H-inden-5-yl)amino)-2-oxoethyl)-1-methyl-1H-pyrazole-5-carboxamide] | 7.07 | 6.49
10 | CNC(=O)C1(N2CC(CC3CC3)NC2=O)Cc2ccc(NC(=O)[C@@H](NC(=O)c3ccnn3C)C3CCCCC3)cc2C1 (stereo partly drawn) [Example 65, N-((1S)-1-cyclohexyl-2-((2-(4-(cyclopropylmethyl)-2-oxoimidazolidin-1-yl)-2-(methylcarbamoyl)-2,3-dihydro-1H-inden-5-yl)amino)-2-oxoethyl)-1-methyl-1H-pyrazole-5-carboxamide] | 6.15 | 5.69
11 | CNC(=O)C1(N2C[C@@H](C(C)C)NC2=O)Cc2ccc(NC(=O)[C@@H](NC(=O)c3ccnn3C)C3CCC(F)(F)CC3)cc2C1 (stereo partly drawn) [Example 67, N-((1S)-1-(4,4-difluorocyclohexyl)-2-((2-((R)-4-isopropyl-2-oxoimidazolidin-1-yl)-2-(methylcarbamoyl)-2,3-dihydro-1H-inden-5-yl)amino)-2-oxoethyl)-1-methyl-1H-pyrazole-5-carboxamide] | 7.15 | 6.44
12 | CC(C)[C@@H]1CN(C2(C(=O)NCC(F)(F)F)Cc3ccc(NC(=O)[C@@H](NC(=O)c4ccnn4C)C4CCCCC4)cc3C2)C(=O)N1 (stereo partly drawn) [Example 68, N-((1S)-1-cyclohexyl-2-((2-((R)-4-isopropyl-2-oxoimidazolidin-1-yl)-2-((2,2,2-trifluoroethyl)carbamoyl)-2,3-dihydro-1H-inden-5-yl)amino)-2-oxoethyl)-1-methyl-1H-pyrazole-5-carboxamide] | 7.52 | 7.43
13 | CNC(=O)C1(N2C[C@@H](C(C)C)NC2=O)Cc2ccc(NC(=O)[C@@H](NC(=O)c3cccc(Cl)c3)C3CCCCC3)cc2C1 (stereo partly drawn) [Example 69, 5-((S)-2-(3-chlorobenzamido)-2-cyclohexylacetamido)-2-((R)-4-isopropyl-2-oxoimidazolidin-1-yl)-N-methyl-2,3-dihydro-1H-indene-2-carboxamide] | 6.92 | 6.36
14 | CNC(=O)C1(N2CC(C)(C)CNC2=O)Cc2ccc(NC(=O)[C@@H](NC(=O)c3ccnn3C)C3CCCCC3)cc2C1 (stereo partly drawn) [Example 70, N-((1S)-1-cyclohexyl-2-((2-(5,5-dimethyl-2-oxotetrahydropyrimidin-1(2H)-yl)-2-(methylcarbamoyl)-2,3-dihydro-1H-inden-5-yl)amino)-2-oxoethyl)-1-methyl-1H-pyrazole-5-carboxamide] | 7.59 | 7.15
15 | CNC(=O)C1(N2C[C@@H](C(C)C)NC2=O)Cc2ccc(NC(=O)[C@@H](NC(=O)c3cccc(C)c3)C3CCCCC3)cc2C1 (stereo partly drawn) [Example 71, 5-((S)-2-cyclohexyl-2-(3-methylbenzamido)acetamido)-2-((R)-4-isopropyl-2-oxoimidazolidin-1-yl)-N-methyl-2,3-dihydro-1H-indene-2-carboxamide] | 7.68 | 6.66
16 | CNC(=O)C1(N2CC(Cc3ccc(Cl)cc3)NC2=O)Cc2ccc(NC(=O)[C@@H](NC(=O)c3ccnn3C)C3CCCCC3)cc2C1 (stereo partly drawn) [Example 74, N-((1S)-2-((2-(4-(4-chlorobenzyl)-2-oxoimidazolidin-1-yl)-2-(methylcarbamoyl)-2,3-dihydro-1H-inden-5-yl)amino)-1-cyclohexyl-2-oxoethyl)-1-methyl-1H-pyrazole-5-carboxamide] | 7.49 | 6.47
17 | CCC1CNC(=O)N(C2(C(=O)NC)Cc3ccc(NC(=O)[C@@H](NC(=O)c4ccnn4C)C4CCCCC4)cc3C2)C1 (stereo partly drawn) [Example 75, N-((1S)-1-cyclohexyl-2-((2-(5-ethyl-2-oxotetrahydropyrimidin-1(2H)-yl)-2-(methylcarbamoyl)-2,3-dihydro-1H-inden-5-yl)amino)-2-oxoethyl)-1-methyl-1H-pyrazole-5-carboxamide] | 7.48 | 6.73
18 | CNC(=O)C1(N2C[C@@H](Cc3ccc(F)cc3)NC2=O)Cc2ccc(NC(=O)[C@@H](NC(=O)c3ccnn3C)C3CCCCC3)cc2C1 (stereo partly drawn) [Example 76, N-((1S)-1-cyclohexyl-2-((2-((R)-4-(4-fluorobenzyl)-2-oxoimidazolidin-1-yl)-2-(methylcarbamoyl)-2,3-dihydro-1H-inden-5-yl)amino)-2-oxoethyl)-1-methyl-1H-pyrazole-5-carboxamide] | 7.05 | 6.13
19 | CNC(=O)C1(N2C[C@@H](C(C)C)NC2=O)Cc2ccc(NC(=O)[C@H](Cc3cc(-c4ccnc(C(C)(C)O)c4)ccc3Cl)NC(=O)c3ccnn3C)cc2C1 (stereo partly drawn) [Example 79, N-((2S)-3-(2-chloro-5-(2-(2-hydroxypropan-2-yl)pyridin-4-yl)phenyl)-1-((2-((R)-4-isopropyl-2-oxoimidazolidin-1-yl)-2-(methylcarbamoyl)-2,3-dihydro-1H-inden-5-yl)amino)-1-oxopropan-2-yl)-1-methyl-1H-pyrazole-5-carboxamide] | 7.10 | 5.89
20 | CNC(=O)C1(N2CC(Cc3ccc(C(F)(F)F)cc3)NC2=O)Cc2ccc(NC(=O)[C@@H](NC(=O)c3ccnn3C)C3CCCCC3)cc2C1 (stereo partly drawn) [Example 80, N-((1S)-1-cyclohexyl-2-((2-(methylcarbamoyl)-2-(2-oxo-4-(4-(trifluoromethyl)benzyl)imidazolidin-1-yl)-2,3-dihydro-1H-inden-5-yl)amino)-2-oxoethyl)-1-methyl-1H-pyrazole-5-carboxamide] | 6.80 | 6.01
21 | CNC(=O)C1(N2CC(C(C)C(F)(F)F)NC2=O)Cc2ccc(NC(=O)[C@@H](NC(=O)c3ccnn3C)C3CCCCC3)cc2C1 (stereo partly drawn) [Example 81, N-((1S)-1-cyclohexyl-2-((2-(methylcarbamoyl)-2-(2-oxo-4-(1,1,1-trifluoropropan-2-yl)imidazolidin-1-yl)-2,3-dihydro-1H-inden-5-yl)amino)-2-oxoethyl)-1-methyl-1H-pyrazole-5-carboxamide] | 7.12 | 6.15
